Results on one substance are retold here after patent US8329639B2, “MUC1 based glycolipopeptide vaccine with adjuvant” (priority 2011, dated 2012).

The test system of one test is B16-MUC1 tumor cells. The experiment in a line: Tumor growth, B16-MUC1 model. The class given is in vivo, C57B1/6 mice. The note with it: 50 μg Liposomal PET Lipid A, value stated jointly with saline group. The procedure:
(§1) C57B1/6 mice were treated using a bi-weekly schedule with saline vehicle, 50 μg Liposomal PET Lipid A or 5 μg of liposomal vaccine formulation of Example 1 starting on day −42. On Day 0, mice were challenged with either 2×10^6 B16-MUC1, 0.5×10^6 B16, or 2×10^6MC38-MUC1 tumor cells followed by two additional vaccinations on days +3 and +17. Tumor growth was recorded twice weekly.
In the B16-MUC1 model, animals treated with the Example 1 vaccine formulation had no tumors at Day 44. 9/12 animals were tumor free in the Example 1 vaccine formulation group at end of study. […] Mean tumor volume in these two groups was about 200 mm^3 by Day 10. By Day 24, mean tumor volume was about 1200 mm^3 for the saline and PET lipid A groups.

Test [1] has as its system MUC1 antigen having SEQ ID NO: 2. The experiment in a line: Humoral response: serum IgG ELISA on plates coated with MUC1 antigen. The class given is in vivo, C57B1/6J mice. The note with it: vaccine 5, 25 and 100 μg/mouse; PET lipid A 50 μg; serially diluted sera. As to the method:
C57B1/6J mice were injected with a liposomal vaccine formulation of Example 1 in three different concentrations of vaccine (5, 25 and 100 μg). 50 μg dose of PET lipid A and saline were used as a negative control. Sera from the mice were isolated and subsequently serially diluted and incubated onto plates coated with MUC1 antigen having SEQ ID NO: 2. After incubation with sera, the plates were washed and a labeled anti-mouse IgG specific antibody was added. The antibody was washed off and the mouse IgG was measured via an ELISA reader.
On the technique in general: ELISA stands for enzyme-linked immunosorbent assay.

The next test has as its system MC38-MUC1 tumor cells. Briefly: Tumor growth, MC38-MUC1 model. The class given is in vivo, C57B1/6 mice. The following applies: vaccine 5 μg, Liposomal PET Lipid A 50 μg. The procedure: as §1
In the MC38-MUC1 model, 3/12 animals were tumor free in the Example 1 vaccine formulation group at the end of the study. […] By Day 32, mean tumor volume was about 120 mm^3 for the Example 1 vaccine formulation group as compared to about 1200 mm^3 for the PET lipid A group and about 1700 mm^3 for the saline group.

On to “pentaerythritol-6-chain-C14-glucosamine-mono-phosphate [PET lipid A]”, for which, in the test on B16-MUC1 tumor cells, the “mean tumor volume by Day 10” value is given as “about 200 mm^3” and the “mean tumor volume by Day 24” value is “about 1200 mm^3”. Further, the “antibody (IgG) response by ELISA” value in test [1] is “no antibody response”. Moreover, the “mean tumor volume by Day 32” value in the test with MC38-MUC1 tumor cells is reported as “about 1200 mm^3”.
